# Source: patent US20230181684A1, “NOVEL ANTIBIOTIC COMPOSITIONS AND METHODS OF MAKING OR USING THE SAME” (priority 2020, published 2023)
# Numbered stars: 1 amine (or outer) side, 2 acyl side, 3 side chain; on linkers, the order of the positions; unused ones are H or OH. Bridge positions count the residues as written; N and C are the ends. Square brackets hold non-standard residues; d marks the D form. Peptide text beside a SMILES is read from it. * marks the point of attachment. Hpg(αMan(1-2)αMan) = N[C@H](C(=O)O)c1ccc(O[C@H]2O[C@H](CO)[C@@H](O)[C@H](O)[C@@H]2O[C@H]2O[C@H](CO)[C@@H](O)[C@H](O)[C@@H]2O)cc1; Octa(2Z,4E)dienoyl(7-Me) = CC(C)C/C=C/C=C\C(=O)*; X1 = NC(=O)[C@@H](O[*:3])[C@H](N[*:1])C(=O)[*:2]; X3 = O=C([C@@H](N[*:1])c1cc(O)cc(O)c1)[*:2]; Hpg(3-Cl) = N[C@H](C(=O)O)c1ccc(O)c(Cl)c1; d(aThr) = C[C@@H](O)[C@@H](N)C(=O)O; dHpg = N[C@@H](C(=O)O)c1ccc(O)cc1; Hpg = N[C@H](C(=O)O)c1ccc(O)cc1; aThr = C[C@H](O)[C@H](N)C(=O)O; dOrn = NCCC[C@@H](N)C(=O)O; X2 = CC(C)CCCCCCC(=O)*
# Assays:
# E. coli ATCC 25922 = system: E. coli ATCC 25922
# Description: (§1) Assessment of antimicrobial activity of chersinamycin: Chersinamycin was examined for its ability to inhibit bacterial growth by broth microdilution assays against Gram-positive strains B. subtilis ATCC 6051, S. aureus ATCC 25923, and E. faecalis ATCC 29212 and Gram-negative strain E. coli ATCC 25922.
# (§2) Minimal inhibitory assays. Antibacterial activity of chersinamycin and positive controls (vancomycin, ampicillin, and ramoplanin A2) were determined by the broth microdilution assay method. Briefly, bacterial strains were grown in cation-adjusted Mueller-Hinton broth. A microtiter plate was prepared by coating wells in 0.2% BSA, and antimicrobial peptides were added with 2-fold dilution steps ranging from 64-0.125 μg mL^−1. Bacteria was added to a final concentration of 10^5 colony forming units and final volume of 100 μL. Plates were incubated at 37° C. for 24 hours, and the MIC was read as the lowest peptide concentration for which no bacterial growth was visualized. Reported values are the average of two replicates.
# Gram-positive strains = assay: Broth microdilution, Gram-positive strains overall; assay type: cell-based; conditions: Gram-positive strains B. subtilis ATCC 6051, S. aureus ATCC 25923, E. faecalis ATCC 29212
# Description: as §1, §2
# [1] = 1% triethylamine in water, room temperature
# Description: Macrolactone selective hydrolysis. […] The solution was allowed to sit at room temperature for one hour, and then analyzed by MALDI-TOF. After determining that the reaction had gone to completion by complete consumption of the starting material, the reaction mixture was dried and reconstituted in a water/acetonitrile mixture for further MS/MS analyses.
# B. subtilis ATCC 6051 = conditions: ATCC 6051, 24 h
# Description: as §1, §2
# E. faecalis ATCC 29212 = conditions: ATCC 29212, 24 h
# Description: as §1, §2
# S. aureus ATCC 25923 = conditions: ATCC 25923, 24 h
# Description: as §1, §2
# [2] = system: vancomycin-susceptible and vancomycin-resistant C. difficile strains; conditions: cited from earlier work
# [3] = system: Gram-positive bacterial infections; conditions: cited from earlier work
# [4] = cited from earlier work
# [5] = delivered intravenously; cited from earlier work
# [6] = administered by intraperitoneal injection; cited from earlier work
# [7] = Boger alanine scan comparators; cited from earlier work
molecule,measurement,setting,value
"CC(C)CCCCCCC(=O)N[C@@H](CC(N)=O)C(=O)N[C@@H]1C(=O)N[C@H](c2ccc(O)cc2)C(=O)N[C@H](CCCN)C(=O)N[C@H]([C@@H](C)O)C(=O)N[C@@H](c2ccc(O)cc2)C(=O)N[C@H](c2ccc(O)cc2)C(=O)N[C@@H]([C@H](C)O)C(=O)N[C@@H](Cc2ccccc2)C(=O)N[C@H](CCCN)C(=O)N[C@@H](c2ccc(O[C@H]3O[C@H](CO)[C@@H](O)[C@H](O)[C@@H]3O[C@H]3O[C@H](CO)[C@@H](O)[C@H](O)[C@@H]3O)cc2)C(=O)N[C@H]([C@@H](C)O)C(=O)N[C@@H](c2cc(O)cc(O)c2)C(=O)NCC(=O)N[C@@H](C(C)C)C(=O)N[C@H](C)C(=O)N[C@@H](c2ccc(O)c(Cl)c2)C(=O)O[C@@H]1C(N)=O [Chersinamycin, chersinamycin] (X2-N[X1][dHpg][dOrn][d(aThr)][Hpg][dHpg][aThr]F[dOrn][Hpg(αMan(1-2)αMan)][d(aThr)][X3]GV[dA][Hpg(3-Cl)]; ester 2-C; N-terminus assumed)","ability to inhibit bacterial growth, in words",E. coli ATCC 25922; Gram-negative strain E. coli ATCC 25922,ineffective
same,"ability to inhibit bacterial growth, in words",Gram-positive strains,potent antimicrobial activity
same,stability of peptide macrocycle to base,[1],highly base labile
"CC(C)C/C=C/C=C\C(=O)N[C@@H](CC(N)=O)C(=O)N[C@@H]1C(=O)N[C@H](c2ccc(O)cc2)C(=O)N[C@H](CCCN)C(=O)N[C@H]([C@@H](C)O)C(=O)N[C@@H](c2ccc(O)cc2)C(=O)N[C@H](c2ccc(O)cc2)C(=O)N[C@@H]([C@H](C)O)C(=O)N[C@@H](Cc2ccccc2)C(=O)N[C@H](CCCN)C(=O)N[C@@H](c2ccc(O[C@H]3O[C@H](CO)[C@@H](O)[C@H](O)[C@@H]3O[C@H]3O[C@H](CO)[C@@H](O)[C@H](O)[C@@H]3O)cc2)C(=O)N[C@H]([C@@H](C)O)C(=O)N[C@@H](c2ccc(O)cc2)C(=O)NCC(=O)N[C@@H](CC(C)C)C(=O)N[C@H](C)C(=O)N[C@@H](c2ccc(O)c(Cl)c2)C(=O)O[C@@H]1C(N)=O [Ramoplanin, ramoplanin A2] ({Octa(2Z,4E)dienoyl(7-Me)}-N[X1][dHpg][dOrn][d(aThr)][Hpg][dHpg][aThr]F[dOrn][Hpg(αMan(1-2)αMan)][d(aThr)][Hpg]GL[dA][Hpg(3-Cl)]; ester 2-C)",MIC,B. subtilis ATCC 6051,<0.125 µg/mL
same,MIC,"E. coli ATCC 25922; ATCC 25922, 24 h",>64 µg/mL
same,MIC,E. faecalis ATCC 29212,0.5 µg/mL
same,MIC,S. aureus ATCC 25923,0.5 µg/mL
same,MICs in vitro against C. difficile,[2],0.25 to 0.50 µg/mL
same,MICs in vitro,[3],0.125 to 2 µg/mL
same,oral absorption,"[4]; in vivo, po",not orally absorbed
same,colonic concentrations,[4]; oral delivery,> 300 µg/mL
same,hemolysis,[5],mild to moderately hemolytic
same,stability of macrolactone,[6],susceptible to hydrolysis
[Dap2]-ramoplanin A2 aglycon [[Dap2]-ramoplanin aglycon],MIC,[7],0.07 µg/mL
ramoplanin A2 aglycon,MIC,[7],0.11 µg/mL
